# Test results taken from article PMC4157036, “Does Long-Term Administration of a Beta-Blocker (Timolol) Induce Fibril-Based Cataract Formation In-vivo?” (Iranian Journal of Pharmaceutical Research : IJPR, 2014).
# Target: T1, bovine α-crystallin (Bos taurus, UniProt P02470+P02510)
# T1 construct: gene CRYAA; native hetero-oligomer purified from bovine lenses (cows under two years), mixture of alphaA and alphaB subunits at about 3:1; no tag
# T1 sequence (P02470 1-173): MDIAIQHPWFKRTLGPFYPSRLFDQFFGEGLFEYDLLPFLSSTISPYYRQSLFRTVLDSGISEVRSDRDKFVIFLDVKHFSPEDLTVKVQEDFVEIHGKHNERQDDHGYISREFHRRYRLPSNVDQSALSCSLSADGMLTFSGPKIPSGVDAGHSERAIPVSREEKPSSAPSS
# T1 sequence (P02510 1-175): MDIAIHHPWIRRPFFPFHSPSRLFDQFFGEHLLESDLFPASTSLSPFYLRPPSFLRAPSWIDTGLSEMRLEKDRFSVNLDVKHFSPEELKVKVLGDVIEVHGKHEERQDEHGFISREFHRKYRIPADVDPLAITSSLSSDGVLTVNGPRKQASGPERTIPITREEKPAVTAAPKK
# Experiment: turbidity at […] nm of GdnHCl-induced aggregation at […] °C
# Conditions: 5 µM timolol, protein 0.6 mg/mL, 0.1 M phosphate pH 7.4, 60 °C, enhancer of aggregation, direct binding not measured
smiles,measurement,value
CC(C)(C)NC[C@H](O)COc1nsnc1N1CCOCC1 [timolol],aggregation extent (fold),~ 3 fold
